Assay results from ChEMBL document CHEMBL1130899, “Development of dual-acting agents for thromboxane receptor antagonism and thromboxane synthase inhibition. 2. Design, synthesis, and evaluation of a novel series of phenyl oxazole derivatives” (Bioorg Med Chem Lett, 1998).

How the values were obtained:
Thromboxane-A synthase = target: T1, Thromboxane-A synthase (Homo sapiens, UniProt P24557); experiment: In vitro inhibition of thromboxane synthase (TSI) activity was determined by using human serum levels of TXB2; format: cell-free
T1 sequence (P24557 whole entry): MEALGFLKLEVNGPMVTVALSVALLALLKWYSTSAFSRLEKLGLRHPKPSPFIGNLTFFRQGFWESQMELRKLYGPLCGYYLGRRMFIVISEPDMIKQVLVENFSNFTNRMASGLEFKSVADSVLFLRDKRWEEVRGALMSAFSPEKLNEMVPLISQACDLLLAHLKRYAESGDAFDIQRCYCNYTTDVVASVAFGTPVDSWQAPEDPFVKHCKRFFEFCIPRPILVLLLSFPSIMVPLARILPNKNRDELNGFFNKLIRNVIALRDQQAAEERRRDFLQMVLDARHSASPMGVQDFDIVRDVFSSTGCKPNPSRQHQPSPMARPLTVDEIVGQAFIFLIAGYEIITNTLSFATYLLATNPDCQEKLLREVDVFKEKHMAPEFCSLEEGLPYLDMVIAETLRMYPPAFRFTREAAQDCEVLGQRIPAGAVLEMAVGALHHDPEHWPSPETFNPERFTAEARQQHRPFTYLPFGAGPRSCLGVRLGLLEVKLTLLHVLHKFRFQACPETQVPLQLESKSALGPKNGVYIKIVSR

Thromboxane A2 receptor = target: T2, Thromboxane A2 receptor (Homo sapiens, UniProt P21731); experiment: In vitro thromboxane receptor antagonism was determined using a human platelet binding assay
T2 sequence (P21731 whole entry): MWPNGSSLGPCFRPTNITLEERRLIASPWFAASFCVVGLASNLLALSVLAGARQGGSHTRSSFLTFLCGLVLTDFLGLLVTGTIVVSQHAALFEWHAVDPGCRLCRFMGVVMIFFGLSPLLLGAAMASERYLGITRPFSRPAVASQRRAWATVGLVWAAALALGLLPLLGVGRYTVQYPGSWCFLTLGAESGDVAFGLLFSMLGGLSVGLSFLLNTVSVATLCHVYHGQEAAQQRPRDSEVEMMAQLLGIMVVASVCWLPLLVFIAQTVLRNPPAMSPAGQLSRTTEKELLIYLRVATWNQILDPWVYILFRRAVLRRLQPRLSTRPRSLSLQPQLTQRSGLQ

[1] = Partition coefficient (logP); format: physicochemical; conditions: octanol/water

| IC50 (Thromboxane-A synthase) | Kd (Thromboxane A2 receptor) | logP [1] | Compound |
| --- | --- | --- | --- |
| 31.2 nM | 153 nM | 5.23 | CCCCCNC(=O)c1coc(-c2ccc(/C(=C\CCCCC(=O)O)c3cccnc3)cc2)n1 |
|  | 1500 nM |  | O=C(O)CCCC/C=C(\c1cccnc1)c1ccccc1-c1nc(C(=O)NCCCCC2CCCCC2)co1 |
| 19 nM | 12.3 nM |  | O=C(O)CCCC/C=C(/c1cccnc1)c1cccc(-c2nc(C(=O)NCCCCC3CCCCC3)co2)c1 |
|  | 540 nM |  | O=C(O)CCCC/C=C(/c1cccnc1)c1ccccc1-c1nc(C(=O)NCCCCC2CCCCC2)co1 |
|  | 830 nM |  | O=C(O)CCCC/C=C(\c1cccnc1)c1cccc(C2=N[C@@H](C(=O)NCCCCC3CCCCC3)CO2)c1 |
| 550 nM |  | 7.35 | O=C(O)CCCC/C=C(\c1ccc(-c2nc(C(=O)NCCCCC3CCCCC3)co2)cc1)c1cccnc1 |
|  | 244 nM |  | CCCCCNC(=O)[C@@H]1COC(c2ccc(/C(=C\CCCCC(=O)O)c3cccnc3)cc2)=N1 |
| 3170 nM | 93.3 nM |  | O=C(O)CC/C=C(\c1ccc(-c2nc(C(=O)NCCCCC3CCCCC3)co2)cc1)c1cccnc1 |
| 23 nM | 630 nM |  | O=C(O)CCCC/C=C(\c1cccnc1)c1cccc(-c2nc(C(=O)NCCCCC3CCCCC3)co2)c1 |
|  | 8200 nM |  | O=C(O)CCCC/C=C(\c1ccccc1)c1cccnc1 [(E)-ISBOGREL] |

| Compound | IC50 (Thromboxane-A synthase) | Kd (Thromboxane A2 receptor) | logP [1] |
| --- | --- | --- | --- |
| O=C(O)CCCC/C=C(\c1ccc(C2=N[C@@H](C(=O)NCCCCC3CCCCC3)CO2)cc1)c1cccnc1 | 82.1 nM |  |  |
| O=C(O)CCCC/C=C(/c1ccc(C2=N[C@@H](C(=O)NCCCCC3CCCCC3)CO2)cc1)c1cccnc1 | > 10000 nM |  |  |
| O=C(O)CCCC/C=C(/c1ccc(-c2nc(C(=O)NCCCCC3CCCCC3)co2)cc1)c1cccnc1 |  | 147 nM |  |
